ChEMBL document CHEMBL1159169, “Nuclear variations of quinuclidine substance P antagonists: 2-diphenylmethyl-1-azabicyclo[3.2.2]nonan-3-amines” (Bioorg Med Chem Lett, 1993)

Molecular target: Substance-P receptor (Homo sapiens, UniProt P25103)
Assay: Compound was evaluated for the inhibition of binding of [3H]SP in human IM-9 cells
Type: cell-based

Sequence of Substance-P receptor (P25103 whole entry): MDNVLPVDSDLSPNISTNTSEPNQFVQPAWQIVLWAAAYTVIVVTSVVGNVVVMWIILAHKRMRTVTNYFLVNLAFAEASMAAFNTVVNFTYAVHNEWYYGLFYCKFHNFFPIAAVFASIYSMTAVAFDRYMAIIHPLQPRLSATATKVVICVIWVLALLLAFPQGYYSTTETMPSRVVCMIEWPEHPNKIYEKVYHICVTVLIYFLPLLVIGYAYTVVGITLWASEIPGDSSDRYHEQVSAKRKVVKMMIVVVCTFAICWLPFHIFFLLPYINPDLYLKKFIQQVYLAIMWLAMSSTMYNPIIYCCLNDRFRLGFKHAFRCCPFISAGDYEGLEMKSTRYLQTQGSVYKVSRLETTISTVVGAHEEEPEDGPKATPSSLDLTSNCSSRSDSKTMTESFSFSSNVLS

Work on `COc1ccccc1CN[C@H]1C2CCCN(CC2)[C@H]1C(c1ccccc1)c1ccccc1` (some centres undefined) yielded an IC50 of 34.3 nM.

For `COc1ccccc1CN[C@H]1C2CCCN(CC2)[C@H]1C(c1ccc(F)cc1)c1ccc(F)cc1` (some centres undefined), the IC50 was 310 nM.

With `COc1ccc(CN[C@H]2C3CCCN(CC3)[C@H]2C(c2ccccc2)c2ccccc2)c(OC)c1` (some centres undefined) the IC50 was 86.3 nM.

With `Clc1ccccc1CN[C@H]1C2CCCN(CC2)[C@H]1C(c1ccccc1)c1ccccc1` (some centres undefined) the IC50 was 560 nM.
